Data reported in EP0349941A2, “Morpholino derivatives of rhodomycins, process for their preparation and their use” (BEHRINGWERKE Aktiengesellschaft, priority 1988, dated 1990).
≈ marks a conversion by molar mass, not a printed value. Where two headings read alike, the source gives them in different places.

Experiments:
L1210 Leukämiezellen = assay: Cytotoxicity against L1210 leukaemia cells (stem cell assay, colony formation in soft agar); assay type: cell-based, Maus; settings: colonies counted after 5-7 days; for IC50: Mus musculus, L1210
Experimental: Der Test wurde entsprechend der von Hamburger und Salmon beschriebenen Methodik mit den unten beschriebenen Modifikationen durchgeführt.
Konditioniertes Medium wurde durch McCoy 5A Medium ersetzt. Als Folge der hohen Klonierungsrate der L1210 Leukämiezellen in Soft Agar wurde die Anzahl an Tumorzellen pro Platte auf 5 x 10² reduziert.
Die Zellen wurden mit unterschiedlichen Konzentrationen der Testsubstanz für 1 h bei 37° C inkubiert. Anschlie-ßend wurden die Zellen zweimal mit McCoy 5A Medium gewaschen und anschließend in einem Zwei-Schichten-Agar System als obere Schicht entsprechend der Methode von Hamburger und Salmon ausplattiert.
Zusätzliche Parallelexperimente wurden unter Verwendung einer kontinuierlichen Inkubationszeit durchgeführt, wobei unterschiedliche Konzentrationen der Testsubstanz der oberen Agarschicht vor Ausplattieren der Zellen zugemischt wurden.
Die Platten wurden in einem Brutschrank mit 5 % CO₂, 20 % O₂ und 95 % relativer Luftfeuchte für 5-7 Tage inkubiert. Nach dieser Zeit wurden Kolonien mit einem Durchmesser von 60 µm mit Hilfe eines Invertoskopes gezählt.
Die Ergebnisse wurden angegeben als prozentualer Anteil der Kolonien in behandelten versus unbehandelten Gruppen. Der Variationskoeffizient bei wiederholten Experimenten war kleiner als 15 %.
Die an den getesteten Verbindungen erhaltenen Resultate sind in der Tabelle 1 enthalten. Aus der Dosis-Wirkungskurve wurde die IC₅₀ für die kontinuierliche und einstündige Inkubation bestimmt (Tab. 1).

L1210 = assay: Proliferation test (MTT reduction), L1210; assay type: cell-based, Maus; settings: L1210 cells, 72 h incubation; for IC50: Mus musculus, read-out: IC₅₀ MTT-ASSAY L1210
Experimental: (§1) L1210, A 549 oder HT 29 in exponentieller Wachstumsphase wurden in einer Zelldichte von 5 x 10³ Zellen/ml in RPMI 1640 in einer 96 Well Mikrotiterplatte für 72 h mit unterschiedlichen Konzentrationen der Testsubstanz bei 37° C, 5 % CO₂ und 95 % relativer Luftfeuchte inkubiert. Kontrollexperimente erhielten anstelle der Testsubstanz lediglich Wachstumsmedium. Für jede Testsubstanz sowie für die Kontrolle wurden 4fach Bestimmungen angesetzt. Nach 65 h Inkubation wurden 50 µl einer MTT-Lösung (2,5 mg/ml in Phosphat-gepuffertem Kochsalz) zugegeben. In Gegenwart lebender Zellen wurde MTT zu einem dunkelroten unlöslichen Formazanfarbstoff reduziert. Diese Reaktion war nach 7 h (L1210 Zellen) bzw. nach 24 h (A 549, HT 29 Zellen) beendet und das überstehende Medium wird sorgfältig abgesaugt. Der unlösliche Farbstoff wurde durch Zugabe von 100 µl DMSO aufgelöst und die Extinktion der so entstehenden Lösung anschließend für jedes Well in einem Multiscan Photometer 340 CC der Fa. Flow bei einer Wellenlänge von 492 nm vermessen.
(§2) Aus dem Verhältnis der Extinktionen behandelter und unbehandelter Zellen ergab sich eine Dosis-Wirkungskurve, aus der die Konzentration, die gerade 50 % der Zellen (IC₅₀) abtötet, abgelesen werden konnte. Für wiederholte Untersuchungen betrug der Variationskoeffizient weniger als 15 %.

HT 29 = assay: Proliferation test (MTT reduction), HT 29; assay type: cell-based, menschlichen; settings: HT 29 cells, 72 h incubation; for IC50: Homo sapiens, read-out: IC₅₀ MTT-ASSAY HT 29
Experimental: as §1, §2

A 549 = assay: Proliferation test (MTT reduction), A 549; assay type: cell-based, menschlichen; settings: A 549 cells, 72 h incubation; for IC50: Homo sapiens, A549, read-out: IC₅₀ MTT-ASSAY A 549
Experimental: as §1, §2

L1210 Leukämie der Maus = assay: In vivo efficacy against L1210 leukaemia of the mouse; settings: L1210 tumour model in vivo
Experimental: Ascitesflüssigkeit wurde unter sterilen Bedingungen DBA2 Mäusen (weiblich, 18 - 20 g) 7 Tage nach Implantation entnommen. Der Ascites wurde dreimal mit PBS gewaschen, gezählt und auf eine Zellzahl von 10⁶ in 0.2 ml PBS eingestellt. 10⁶ Zellen, suspendiert in 0.2 ml PBS, wurden anschlie-ßend DBF1 Mäusen (weiblich, 18 - 20 g) intraperitoneal injiziert. 6 Tiere pro Gruppe wurden für jede Substanzkonzentration bzw. als Kontrolle eingesetzt.
Zur Ermittlung der antitumoralen Wirksamkeit wurden die Tiere am Tag 1 und 5 nach Injektion der Testsubstanz gewogen. Gewichtsverlust von mehr als 20 % am Tag 5 wurde als Indikator einer toxischen Substanzwirkung angesehen.
Am Ende des Experimentes (Tod aller Tiere oder überlebende Tiere am Tag 60) wurde die mittlere Überlebenszeit der Tiere in den jeweiligen Gruppen bestimmt, sofern am Tag 5 des Experimentes mindestens 65 % der Tiere noch gelebt hatten. Die mittlere Überlebenszeit wurde ausschließlich für im Verlaufe des Experimentes sterbende Tiere bestimmt. Langzeitüberlebende (LTS) wurden bei dieser Berechnung nicht berücksichtigt und gesondert aufgeführt.
Aus der mittleren Überlebenszeit (MSTr) der behandelten Gruppen sowie der Kontrollgruppen (MSTc) wurde die antitumorale Wirksamkeit (T/C) für die jeweilige Substanzkonzentration in Prozent der unbehandelten Kontrolle entsprechend der folgenden Formel bestimmt: [formula] […]

[1] = 1 h incubation at 37° C, read-out: IC₅₀ STEM CELL ASSAY 1 h exp. L1210
[2] = continuous incubation, read-out: IC₅₀ STEM CELL ASSAY cont. exp. L1210

Molecule	IC50 (L1210 Leukämiezellen; [1]) [µg/mL]	IC50 (L1210 Leukämiezellen; [2]) [µg/mL]	IC50 (L1210) [µg/mL]	IC50 (HT 29) [µg/mL]	IC50 (A 549) [µg/mL]	also measured
CC[C@@]1(O)C[C@H](O[C@H]2C[C@H](N3C[C@@H](OC)O[C@@H](C)C3)[C@H](O)[C@H](C)O2)c2c(O)c3c(c(O)c2[C@H]1O)C(=O)c1cccc(O)c1C3=O [XIX, 7-0-(3′-(6˝(S)-methyl-2˝(S)-methoxy-4˝-morpholinyl)-2′, 3′,6′-tridesoxy-alpha-L-lyxohexopyranosyl)-ß-rhodomycinon]	0.095 (≈ 0.151 µM)	0.021 (≈ 0.0334 µM)	–	–	–	–
CC[C@@]1(O)C[C@H](O[C@H]2C[C@H](N3C[C@@H](CO)O[C@@H](OC)C3)[C@H](O)[C@H](C)O2)c2c(O)c3c(c(O)c2[C@H]1O)C(=O)c1cccc(O)c1C3=O [XVII, 7-0-(3′-(6˝(S)-Hydroxymethyl-2˝(R)-methoxy-4˝-morpholinyl)-2′,3′,6′-tri-desoxy-alpha-L-lyxohexopyranosyl)-ß-rhodomycinon]	1 (≈ 1.55 µM)	0.55 (≈ 0.852 µM)	–	–	–	–
CC[C@@]1(O)C[C@H](O[C@H]2C[C@H](N3C[C@@H](CO)O[C@H](OC)C3)[C@H](O)[C@H](C)O2)c2c(O)c3c(c(O)c2[C@H]1C(=O)OC)C(=O)c1c(O)ccc(O)c1C3=O [VIII, 7-0-(3′-(6˝(s)-Hydroxymethyl-2˝(s)-methoxy-4˝-morpholinyl)-2′,3′,6′-tri-desoxy-alpha-L-lyxohexopyranosyl)-epsilon-isorhodomycinon]	0.95 (≈ 1.35 µM)	0.029 (≈ 0.0412 µM)	0.009 (≈ 0.0128 µM)	0.035 (≈ 0.0497 µM)	0.038 (≈ 0.054 µM)	Wirkung in dem L1210 Tumormodell in vivo (L1210 Leukämie der Maus): kurativ wirksam
7-0-(3′-(3˝ oder 5˝-Cyano-6˝(S)-hydroxymethyl-2˝(S)-methoxy-4˝-morpholinyl)-2′,3′,6′-tri-desoxy-alpha-L-lyxohexopyranosyl)-epsilon-isorhodomycinon [XXIII]	–	–	–	–	–	IC₅₀ MTT-ASSAY L1210 (L1210): 0.0009 µg/mL; IC₅₀ MTT-ASSAY HT 29 (HT 29): 0.0031 µg/mL; IC₅₀ MTT-ASSAY A 549 (A 549): 0.0021 µg/mL; IC₅₀ STEM CELL ASSAY 1 h exp. L1210 (L1210 Leukämiezellen; 1 h incubation at 37° C): 0.027 µg/mL
CCC1(O)CC(O[C@H]2C[C@H](N3CCOCC3)[C@H](O)[C@H](C)O2)c2c(O)c3c(c(O)c2C1C(=O)OC)C(=O)c1c(O)ccc(O)c1C3=O (stereo partly drawn) [Verbindung 26, 7-0-(3′-(4˝-Morpholinyl)-2′,3′,6′-tridesoxy-alpha-L-lyxohexopyranosyl)-epsilon-isorhodomycinon]	–	–	–	–	–	Wirkung in dem L1210 Tumormodell in vivo (L1210 Leukämie der Maus): nur eine marginale Wirkung
CC[C@@]1(O)C[C@H](O[C@H]2C[C@H](N3C[C@@H](CO)O[C@@H](n4cnc5c(N)ncnc54)C3)[C@H](O)[C@H](C)O2)c2c(O)c3c(c(O)c2[C@H]1C(=O)OC)C(=O)c1c(O)ccc(O)c1C3=O [XIV]	0.5 (≈ 0.62 µM)	1 (≈ 1.24 µM)	–	–	–	–
CC[C@@]1(O)C[C@H](O[C@H]2C[C@H](N3C[C@@H](CO)O[C@H](OC)C3)[C@H](O)[C@H](C)O2)c2c(O)c3c(c(O)c2[C@H]1O)C(=O)c1cccc(O)c1C3=O [XVI, 7-0-(3′-(6˝(S)-Hydroxymethyl-2˝(S)-methoxy-4˝-morpholinyl)-2′,3′,6′-tri-desoxy-alpha-L-lyxohexopyranosyl)-ß-rhodomycinon]	0.15 (≈ 0.232 µM)	0.026 (≈ 0.0403 µM)	0.036 (≈ 0.0558 µM)	0.11 (≈ 0.17 µM)	0.046 (≈ 0.0712 µM)	–
CC[C@@]1(O)C[C@H](O[C@H]2C[C@H](N3C[C@@H](CO)O[C@H](OC)C3)[C@@H](O)[C@H](C)O2)c2c(O)c3c(c(O)c2[C@H]1C(=O)OC)C(=O)c1c(O)ccc(O)c1C3=O [XV, 7-0-(3′-(6˝(S)-Hydroxymethyl-2˝(S)-methoxy-4˝-morpholinyl)-2′,3′,6′-tri-desoxy-alpha-L-arabinohexopyranosyl)epsilon-isorhodomycinon]	0.32 (≈ 0.455 µM)	0.078 (≈ 0.111 µM)	0.035 (≈ 0.0497 µM)	0.03 (≈ 0.0426 µM)	0.038 (≈ 0.054 µM)	–
7-0-(3′-(3˝-oder 5˝-Cyano-6˝(S)-hydroxymethyl-2˝(S)-methoxy-4˝-morpholinyl)-2′,3′,6′-tri-desoxy-alpha-L-arabinohexopyranosyl)-epsilon-isorhodomycinon [XXIV]	–	–	–	–	–	IC₅₀ MTT-ASSAY L1210 (L1210): 0.0071 µg/mL; IC₅₀ MTT-ASSAY HT 29 (HT 29): 0.017 µg/mL; IC₅₀ MTT-ASSAY A 549 (A 549): 0.011 µg/mL; IC₅₀ STEM CELL ASSAY 1 h exp. L1210 (L1210 Leukämiezellen; 1 h incubation at 37° C): 0.034 µg/mL
7-0-(3′-(3˝- oder 5˝-Cyano-6˝(S)-hydroxymethyl-2˝(S)methoxy-4˝-morpholinyl)-2′,3′,6′-tri-desoxy-alpha-L-lyxohexopyranosyl)-ß-rhodomycinon [XXV]	–	–	–	–	–	IC₅₀ MTT-ASSAY L1210 (L1210): 0.0005 µg/mL; IC₅₀ MTT-ASSAY HT 29 (HT 29): 0.002 µg/mL; IC₅₀ MTT-ASSAY A 549 (A 549): 0.003 µg/mL; IC₅₀ STEM CELL ASSAY 1 h exp. L1210 (L1210 Leukämiezellen; 1 h incubation at 37° C): 0.007 µg/mL
CC[C@@]1(O)C[C@H](O[C@H]2C[C@H](N3C[C@@H](CO)O[C@@H](OC)C3)[C@H](O)[C@H](C)O2)c2c(O)c3c(c(O)c2[C@H]1C(=O)OC)C(=O)c1c(O)ccc(O)c1C3=O [IX, 7-0-(3′-(6˝(S)-Hydroxymethyl-2˝(R)-methoxy-4˝-morpholinyl)-2′,3′,6′-tri-desoxy-alpha-L-lyxohexopyranosyl)-epsilon-isorhodomycinon]	1 (≈ 1.42 µM)	0.12 (≈ 0.171 µM)	–	–	–	–
CC[C@@]1(O)C[C@H](O[C@H]2C[C@H](N3C[C@H]4CO[C@@H](C3)O4)[C@H](O)[C@H](C)O2)c2c(O)c3c(c(O)c2[C@H]1O)C(=O)c1cccc(O)c1C3=O [XX, 7-0-(3′-(2˝,6˝-Epoximethano-4˝-morpholinyl)-2′,3′,6′-tridesoxy-alpha-L-lyxohexopyranosyl)-ß-rhodomycinon]	0.12 (≈ 0.196 µM)	–	0.008 (≈ 0.013 µM)	0.036 (≈ 0.0587 µM)	0.014 (≈ 0.0228 µM)	–
